Here are results for 3 molecules from patent US20070276034A1, “Compounds, compositions and methods for the treatment of synucleinopathies” (priority 2002, published 2007).

What all share (format): biochemical
The target in experiment [1] is T1, IAPP fibrils (Homo sapiens, UniProt P10997).
T1 construct: purchased Bachem Inc
T1 sequence (P10997 34-70 limits assumed): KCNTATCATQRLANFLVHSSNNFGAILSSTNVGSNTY
The experiment in a line: Thioflavin T fluorometry - disruption of type 2 diabetes IAPP fibrils. As to conditions: 25 μM pre-fibrillized IAPP, 37° C., 3 days; for inhibition: read-out: % Inhibition IAPP (result ± S.D.). The protocol:
In this assay Thioflavin T binds specifically to fibrillar amyloid, and this binding produces a fluorescence enhancement at 485 nm that is directly proportional to the amount of IAPP fibrils present. The higher the fluorescence, the greater the amount of IAPP fibrils present (Naki et al, Lab. Invest. 65:104-110, 1991; Levine III, Protein Sci. 2:404-410, 1993; Amyloid: Int. J. Exp. Clin. Invest. 2:1-6, 1995).
(§1) In this study, 25 μM of pre-fibrillized IAPP (Bachem Inc) was incubated at 37° C. for 3 days either alone, or in the presence of one of the compounds or EDTA (at IAPP:test compound weight ratios of 1:1, 1:0.1, 1:0.01 or 1:0.001). Following 3-days of co-incubation, 50 μl of each incubation mixture was transferred into a 96-well microtiter plate containing 150 μl of distilled water and 50 μl of a Thioflavin T solution (i.e. 500 mM Thioflavin T in 250 mM phosphate buffer, pH 6.8). The fluorescence was read at 485 nm (444 nm excitation wavelength) using an ELISA plate fluorometer after subtraction with buffer alone or compound alone, as blank.

Experiment [2] addresses T2, Aβ 1-42 fibrils (Homo sapiens, UniProt P05067).
T2 construct: purchased Bachem Inc
The experiment in a line: Thioflavin T fluorometry - disruption of pre-formed Aβ 1-42 Alzheimer's fibrils. Conditions: 25 μM pre-fibrillized Aβ 1-42, 37° C., 3 days; for inhibition: read-out: % Inhibition Aβ (result ± S.D.).
Text: In one study, Thioflavin T fluorometry was used to determine the effects of the compounds, and of EDTA (as a negative control). In this assay Thioflavin T binds specifically to fibrillar amyloid, and this binding produces a fluorescence enhancement at 485 nm that is directly proportional to the amount of amyloid fibrils formed. The higher the fluorescence, the greater the amount of amyloid fibrils formed (Naki et al., Lab. Invest. 65:104-110, 1991; Levine III, Protein Sci. 2:404-410, 1993; Amyloid: Int. J. Exp. Clin. Invest. 2:1-6, 1995).
as §1, with “Aβ 1-42” for “IAPP”, “Aβ:test” for “IAPP:test”

Experiment [3] concerns the target T2, Aβ 1-42 fibrils. The experiment in a line: Congo red binding assay with Aβ 1-42 fibrils. Conditions: 3-day incubation. How it is done: (§2) In the Congo red binding assay the ability of a test compound to alter amyloid (in this case, Aβ) binding to Congo red is quantified. In this assay, Aβ 1-42 and test compounds were incubated for 3 days and then vacuum filtered through a 0.2 μm filter. The amount of Aβ 1-42 retained in the filter was then quantitated following staining of the filter with Congo red. After appropriate washing of the filter, any lowering of the Congo red color on the filter in the presence of the test compound (compared to the Congo red staining of the amyloid protein in the absence of the test compound) was indicative of the test compound's ability to diminish/alter the amount of aggregated and congophilic Aβ.
In one study, the ability of Aβ fibrils to bind Congo red in the absence or presence of increasing amounts of the compounds or EDTA (at Aβ:test compound weight ratios of 1:1, 1:0.1, 1:0.01 or 1:0.001) was determined.

The target in experiment [4] is T3, monomeric Aβ 1-42 (Homo sapiens, UniProt P05067).
T3 construct: purchased Bachem Inc
T3 sequence (P05067 672-713): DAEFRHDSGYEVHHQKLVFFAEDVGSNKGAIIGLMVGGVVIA
Briefly: SDS-PAGE/Western blot of Aβ 1-42 after incubation with compounds. As to conditions: 25 μM pre-fibrillized Aβ 1-42, 37° C., 3 days, 0.2 μm filtrate, antibody 6E10. The protocol:
In this latter study, triplicate samples of pre-fibrillized Aβ 1-42 (25 μM) was incubated at 37° C. for 3 days, alone or in the presence of the compounds or EDTA. Five micrograms of each sample was then filtered through a 0.2 μm filter. Protein recovered from the filtrate was then loaded, and ran on a 10-20% Tris-Tricine SDS-PAGE, blotted to nitrocellulose and detected using an Aβ-antibody (clone 6E10; Senetek).

For experiment [5], the target named is T1, IAPP fibrils. The experiment in a line: Congo red binding assay with IAPP fibrils. Conditions: 3-day incubation. How it is done: as §2, with “of a given test compound” for “of a test compound”, “this case, IAPP) binding to” for “this case, Aβ) binding to”, “this assay, IAPP and test” for “this assay, Aβ 1-42 and test”, “amount of IAPP retained in” for “amount of Aβ 1-42 retained in”, “and congophilic IAPP.” for “and congophilic Aβ.”
In the study, the ability of IAPP fibrils to bind Congo red in the absence or presence of increasing amounts of the compounds or EDTA (at IAPP:test compound weight ratios of 1:1, 1:0.1, 1:0.01 or 1:0.001) was determined.

In experiment [6] the target is T4, NAC fibrils (Homo sapiens, UniProt P37840).
T4 construct: NAC is a 35-amino acid fragment of α-synuclein; purchased Bachem Inc
Briefly: Thioflavin T fluorometry - disruption of Parkinson's disease NAC fibrils. As to conditions: 3 days; for inhibition: 25 μM pre-fibrillized NAC, 37° C., read-out: % Inhibition NAC (result ± S.D.). The protocol: In this assay, Thioflavin T binds specifically to NAC fibrils, and this binding produces a fluorescence enhancement at 485 nm that is directly proportional to the amount of NAC fibrils present. The higher the fluorescence, the greater the amount of NAC fibrils present (Naki et al, Lab. Invest. 65:104-110, 1991; Levine III, Protein Sci. 2:404-410, 1993; Amyloid: Int. J. Exp. Clin. Invest. 2:1-6, 1995).
In this study, 25 μM of pre-fibrillized NAC (Bachem Inc) was incubated at 37° C. for 3 days either alone or in the presence of dihydroxy synthetic analog compounds #1, 3, 23, 26, 52, 63, 66, 67, or EDTA (at NAC:test compound weight ratios of 1:1, 1:0.1, 1:0.01 or 1:0.001). Following 3-days of co-incubation, 50 βl of each incubation mixture was transferred into a 96-well microtiter plate containing 150 μl of distilled water and 50 μl of a Thioflavin T solution (i.e. 500 mM Thioflavin T in 250 mM phosphate buffer, pH 6.8). The fluorescence was read at 485 nm (444 nm excitation wavelength) using an ELISA plate fluorometer after subtraction with buffer alone or compound alone, as blank.

[7] abbreviates: IAPP:test compound wt/wt ratio 1:0.001.
[8] abbreviates: IAPP:test compound wt/wt ratio 1:0.01.
The mark [9] stands for this setting: IAPP:test compound wt/wt ratio 1:0.1.
The mark [10] stands for this setting: IAPP:test compound wt/wt ratio 1:1.
The mark [11] stands for this setting: Aβ:test compound wt/wt ratio 1:0.001.
Setting [12] is: Aβ:test compound wt/wt ratio 1:0.01.
[13] abbreviates: Aβ:test compound wt/wt ratio 1:0.1.
The mark [14] stands for this setting: Aβ:test compound wt/wt ratio 1:1.

Like-named read-outs stand apart in the source and are kept apart here.

T2 sequence (P05067 672-713): as above

Regarding `CN1C2CCC1C(Cc1ccc(O)c(O)c1)C(=O)C2Cc1ccc(O)c(O)c1` (stereo not shown) [Compound 19, 2,4-bis(3,4-dihydroxybenzyl)-3-tropinone], the “% Inhibition IAPP (result ± S.D.)” value in experiment [1] (setting [7]) is listed as 16.7 ± 10.20%; in experiment [1] (setting [8]), 51.7 ± 2.98%; in experiment [1] (setting [9]), 94.0 ± 0.10%; in experiment [1] (setting [10]), 100.0 ± 0.24%. In addition, the “% Inhibition Aβ (result ± S.D.)” value worked out at 10.8 ± 1.38% in experiment [2] (setting [11]), 46.2 ± 2.98% in experiment [2] (setting [12]), 91.1 ± 0.66% in experiment [2] (setting [13]) and 99.1 ± 0.56% in experiment [2] (setting [14]). Besides, the “% Inhibition Aβ (result ± S.D.), Congo red binding” value in experiment [3] (setting [12]) came to 7.4 ± 2.20%; in experiment [3] (setting [13]), 22.4 ± 2.19%; in experiment [3] (setting [14]), 48.1 ± 2.00%. In addition, the “detection of Aβ 1-42 monomers (~4 kilodalton band) on Western blot” value (“detection of Aβ 1-42 monomers” for short) in experiment [4] was “not detected”. Moreover, the entries for the “% Inhibition IAPP (result ± S.D.), Congo red binding” value in experiment [5] (setting [8]), in experiment [5] (setting [9]) and in experiment [5] (setting [10]) were 6.0 ± 0.78%, 21.0 ± 3.70% and 49.3 ± 3.97%, respectively.
For orientation: inhibition means the change of the read-out against control, counted positive when it falls. On to `O=C(CCC(=O)Nc1ccc(O)c(O)c1)Nc1ccc(O)c(O)c1` [Compound 66, succinic acid bis(3,4-dihydroxyanilide)], for which the inhibition in experiment [1] (setting [7]) was found to be 11.1 ± 5.28%; in experiment [1] (setting [8]), 47.6 ± 8.16%; in experiment [1] (setting [9]) it was 94 ± 2.88%; in experiment [1] (setting [10]), 98.5 ± 0.06%; in experiment [6] (NAC:test compound wt/wt ratio 1:0.001) it was 30.5 ± 9.55%; in experiment [6] (NAC:test compound wt/wt ratio 1:0.01), 43.4 ± 3.45%. In addition, the inhibition is 82.5 ± 5.37% in experiment [6] (NAC:test compound wt/wt ratio 1:0.1); 98.9 ± 0.65% in experiment [6] (NAC:test compound wt/wt ratio 1:1); 27.1 ± 3.51% in experiment [2] (setting [11]); 42 ± 2.36% in experiment [2] (setting [12]); 78.3 ± 4.17% in experiment [2] (setting [13]); 100 ± 0.68% in experiment [2] (setting [14]). Further, the “disruption/disassembly of pre-formed NAC fibrils (in words)” value in experiment [6] (all concentrations tested (ratios 1:1 to 1:0.001)) is on record as “dose-dependent disruption/disassembly”. In experiment [4], the “detection of Aβ 1-42 monomers” value is reported as “not detected”. For the same molecule, the “% Inhibition IAPP (result ± S.D.), Congo red binding” value in experiment [5] (setting [7]) came out at 4.8 ± 1.86%; in experiment [5] (setting [8]), 5.7 ± 4.23%; in experiment [5] (setting [9]) it was 15.7 ± 2.53%; in experiment [5] (setting [10]), 41.4 ± 3.84%.
As for `O=C(CCc1ccc(O)c(O)c1)NCc1ccc(O)c(O)c1` [Compound 58, 3-(3,4-dihydroxyphenyl)propionic acid 3,4-dihydroxybenzylamide], the inhibition in experiment [1] (setting [7]) was found to be 8.9 ± 6.87%; in experiment [1] (setting [8]) it was 48.8 ± 2.05%; in experiment [1] (setting [9]), 87.6 ± 1.16%; in experiment [1] (setting [10]), 98.1 ± 1.04%; in experiment [2] (setting [11]), 20.5 ± 6.27%; in experiment [2] (setting [12]), 33.2 ± 5.16%. Besides, the figures for the inhibition in experiment [2] (setting [13]) and in experiment [2] (setting [14]) were 76 ± 2.57% and 94.8 ± 1.67%, respectively. Moreover, the “detection of Aβ 1-42 monomers” value in experiment [4] is reported as “not detected”. The “% Inhibition IAPP (result ± S.D.), Congo red binding” value in experiment [5] (setting [7]) amounted to 0.0 ± 1.93%; in experiment [5] (setting [8]), 4.6 ± 2.35%; in experiment [5] (setting [9]) it was 0.7 ± 6.21%; in experiment [5] (setting [10]), 24.5 ± 0.57%.
